Legend:
[1] = system: rat aortic smooth muscle cells (RASMCs); assay: RASMC proliferation (PCNA immunostaining, EZ-CyTox cell viability assay); assay type: cell-based; settings: RASMCs, synthetic conditions, calpain inhibitor
Experimental: (§1) The rat aortic smooth muscle cells (RASMCs) were isolated from the medial layer of the thoracic aorta derived from male Sprague-Dawley rats (body weight, 180-200 g) by an enzymatic reaction with collagenase (50 U/mL, Worthington) and pancreatic elastase (0.25 mg/mL, Sigma-Aldrich) for 4 hours at 37. The cells were collected and resuspended in DMEM containing 20% (v/v) fetal bovine serum. The resuspension was then plated on collagen I (Sigma-Aldrich)-coated glass coverslips and incubated at 37 in an atmosphere of 5% (v/v) CO2 and 95% (v/v) air. Human coronary smooth muscle cells (HCSMCs), pulmonary arterial endothelial cells (PAECs), and pulmonary arterial smooth muscle cells (PASMCs) were purchased from Lonza and cultured in EBM or SmBM (Lonza) supplemented with 0.5 mg/mL hEGF, […], 1 mg/mL hFGF, […] gentamicin/amphotericin-B, and 5% fetal bovine serum. All the cells were cultured at 37 in 5% (v/v) CO2 and 95% (v/v) air. RASMCs and HCSMCs were, respectively, plated at the densities of 1×10^4 cells/cm^2 and 1×10^5 cells/cm^2 for immunostaining and western blotting experiments. For RASMC and PASMC cell proliferation experiments, these cells were cultured in fetal bovine serum-free media for 3 days, and then proliferation was induced by serum addition.
Rat aortic smooth muscle cells (RASMCs) were fixed in 4% (w/v) paraformaldehyde at room temperature for 10 min, washed with PBS, and then transmitted with 0.1% (v/v) Triton X-100 in PBS for 40 min. After washing and blocking with 3% (w/v) BSA in PBS, the cells were incubated overnight at room temperature with antibodies against SERCA2a (1:250), SERCA2b (1:250), and PCNA (1:50). On the following day, the cells were washed with PBS and incubated with anti-rabbit and anti-mouse IgG conjugated to Alexa Fluor 488 and 594, respectively, for 1 hour at room temperature. The cells were treated with FluoroGuard antifade reagent (Bio-Rad, Hercules, Calif., USA), and the coverslips were examined under a fluorescent microscope. […]

SERCA2a [2] = assay: SERCA2a level and stability in RASMCs (immunostaining, western blotting); assay type: cell-based, rat; settings: synthetic conditions, calpain inhibitor
Experimental: Rat aortic smooth muscle cells (RASMCs) were fixed in 4% (w/v) paraformaldehyde at room temperature for 10 min, washed with PBS, and then transmitted with 0.1% (v/v) Triton X-100 in PBS for 40 min. After washing and blocking with 3% (w/v) BSA in PBS, the cells were incubated overnight at room temperature with antibodies against SERCA2a (1:250), SERCA2b (1:250), and PCNA (1:50). On the following day, the cells were washed with PBS and incubated with anti-rabbit and anti-mouse IgG conjugated to Alexa Fluor 488 and 594, respectively, for 1 hour at room temperature. The cells were treated with FluoroGuard antifade reagent (Bio-Rad, Hercules, Calif., USA), and the coverslips were examined under a fluorescent microscope.
(§2) Vascular smooth muscle cells (VSMCs) were homogenized in a minimal volume of 50 mM Tris-HCl, pH 7.4, supplemented with a broad-spectrum protease inhibitor cocktail (Calbiochem). The proteins were separated by SDS-PAGE and then transferred to polyvinylidene fluoride membranes (Schleicher & Schuell). After blocking with 5% (w/v) non-fat milk for 1 hour and washing with TBST, the membranes were incubated with antibodies against SERCA2a, SERCA2b (21st century biochemical), PCNA (abcam), GAPDH (Sigma-Aldrich), phospho-eNOS, eNOS, phospho-eIF2α, eIF2α (cell signaling), Vimentin, α-SMA, BMPR2 (Santa cruz), phospho-Akt, Akt (cell signaling), phospho-phospholamban (Merck), and Phospholamban (cell signaling). The membranes were then incubated with horseradish peroxidase-conjugated secondary antibodies (Jackson ImmunoResearch, West Grove, Pa., USA) and developed using a chemiluminescent substrate (Dogen). The blots were scanned and quantified using LAS software.
RASMCs were cultured in DMEM supplemented with 0.1% (v/v) FBS (Contractile) or in DMEM supplemented with 10% (v/v) FBS (Synthetic) in the presence of 3 μM control or ψPLB-SE peptide. Cycloheximide (Sigma) was added to media to a final concentration of 5 μg/ml. Cells were harvested after 0, 3, and 5 days of incubation and their protein extracts were subjected to western blotting.

SERCA2a [3] = assay: A23187-induced SERCA2a degradation in HCSMCs; assay type: cell-based, human
Experimental: (§3) FIGS. 4a, 4b, 4c and 4d. (4a-4c) HCSMCs were pretreated with 3 μM ψPLB-SE and 15 μM MDL28170 for 1 hour, and then treated with 50 μM A23187 for 2 hours. (4a) Immunostaining was performed with antibodies against SERCA2a and SERCA2b (green). Nuclei were stained with Hoechst (blue). Representative merged images are shown. Scale bar, 50 μm. (4b) Western blot analysis was performed with cell extracts. Data are expressed as the means±SD (n=3-4; *, P<0.05). (4c) Baseline Ca^2+ concentration was measured by lonOptix calcium imaging system. (4d) RASMC were treated with ψPLB-SE or control peptide under the same conditions as described for FIG. 1B. The baseline Ca^2+ concentration was measured by lonOptix calcium imaging system (*, P<0.05).
as §1, with “For RASMC and PASMC cell proliferation experiments, these cells were cultured in fetal bovine serum-free media for 3 days, and then proliferation was induced by serum addition.” left out
Vascular smooth muscle cells (VSMCs) were homogenized in a minimal volume of 50 mM Tris-HCl, pH 7.4, supplemented with a broad-spectrum protease inhibitor cocktail (Calbiochem). […] The blots were scanned and quantified using LAS software.

cytosolic Ca^2+ level = assay: Intracellular Ca2+ measurement in HCSMCs; assay type: cell-based, human
Experimental: as §3
The intracellular Ca^2+ level was measured in VSMCs by loading cells with 0.5 μM Fura2-AM (Molecular Probes, Eugene Oreg., USA), a Ca^2+-sensitive indicator, for 15 minutes at 37. The fluorescence was recorded using the lonOptix calcium imaging system. VSMCs were stimulated by the exposure to light emitted by a 75 W halogen lamp through either a 340 nm or 380 nm filter. The fluorescent emissions were detected between 480 nm and 520 nm by a photomultiplier tube after an initial illumination at 340 nm for 0.5 second and then at 380 nm during recording. The 340 nm excitation scan was repeated at the end of the protocol, and qualitative changes in the intracellular Ca^2+ level were inferred from the ratio of the Fura2 fluorescent intensity at both wavelengths.

eNOS and Akt = eNOS and Akt phosphorylation in PAECs (western blotting); assay type: cell-based; settings: 100 nM okadaic acid
Experimental: FIGS. 16a, 16b and 16c. (16a-16b) PAECs were treated with 3 μM ψPLB-SE for 1 hour, and protein expression was quantitatively analyzed through western blotting using antibodies against Phospho-eNOS (ser1177), total eNOS, phospho-Akt (Ser473, Thr308), total Akt, and GAPDH. (16c) The pulmonary tissue lysate was subjected to immunoprecipitation using PP1 antibody to investigate the interactions of PP1 with eNOS and Akt depending on the presence or absence of the treatment with ψPLB-SE using respective antibodies therefor.
FIGS. 17a, 17b and 17c. (17a) PAECs were treated with 50 μM LY294002, a PI3K inhibitor, for 24 hours, and then treated with 3 μM ψPLB-SE for 1 hour. Protein expression was quantitatively analyzed through western blotting using antibodies against Phospho-eNOS (ser1177), total eNOS, phospho-Akt (Ser473, Thr308), total Akt, and GAPDH. (17b) PAECs were treated with 10 μM inhibitor IV, an Akt inhibitor, for 2 hours, and then treated with 3 μM ψPLB-SE for 1 hour. Protein expression was quantitatively analyzed through western blotting using antibodies against total eNOS and GAPDH. (17c) PAECs were treated with 100 nM OA, a PP1 inhibitor, for 24 hours, and then treated with 3 μM ψPLB-SE for 1 hour. Protein expression was quantitatively analyzed through western blotting using antibodies against Phospho-eNOS (ser1177), total eNOS, phospho-Akt (Ser473, Thr308), total Akt, and GAPDH.
ψPLB-SE (RAE16TIEMPQ; SEQ ID NO: 2) was derived from the PLB protein sequence surrounding the Ser16 phosphorylation site. To facilitate uptake into cells, the peptide was conjugated to the cell penetrating peptide dNP2 ([…]; SEQ ID NO: 21) or TAT (YGRKKRRQRRR; SEQ ID NO: 22). The peptides used in the present invention were PLB-SE (RAETIEMPQ; SEQ ID NO: 2) and control peptide (RASTIEMPQ; SEQ ID NO: 23). PLB-SE and cell penetrating peptide were connected by a linker peptide (GGG; SEQ ID NO: 24) The peptides (purity of 95% or higher, AnyGen, Gwangju, Korea) was resuspended in double-distilled water or physiological saline at a stock concentration of 3 mM (cells), 2.5 mg/ml (rats), or 500 μg/ml (mice). The rats were treated with 1 mg/kg peptides and mice were treated with 2 mg/kg peptides. The rat aortic smooth muscle cells (RASMCs), human coronary smooth muscle cells (HCSMCs), pulmonary arterial endothelial cells (PAECs), and pulmonary arterial smooth muscle cells (PASMCs) were treated with the peptides at a final concentration of 3 μM for 1 hour. The PI3K inhibitor LY294002 (Millipore, USA), the Akt inhibitor Inhibitor IV (Calbiochem, USA), and the PP1 inhibitor okadaic acid (Sigma Aldrich, USA), used in the experiments using pulmonary arterial endothelial cells (PAECs), were purchased. For the monocrotaline aqueous solution, the monocrotaline powder (Sigma Aldrich, USA) was dissolved in a small amount of a 1 M hydrochloric acid solution (HCL), diluted with sterilized distilled water, and adjusted to pH 7.35 by addition of sodium hydroxide (NaOH). The animals were bred and observed in the same conditions as in the control group during the experiment periods. In addition, the calcium ionophore A23187 and the calpain I and II inhibitors MDL28170 and […] were purchased from Sigma-Aldrich (St. Louis, Mo., USA).
as §2, with “The membranes were then incubated with horseradish peroxidase-conjugated secondary antibodies (Jackson ImmunoResearch, West Grove, Pa., USA) and developed using a chemiluminescent substrate (Dogen). The blots were scanned and quantified using LAS software.” left out

[4] = HCSMCs pretreated 1 hour with 3 μM ψPLB-SE or 15 μM MDL28170, then 50 μM A23187 2 hours
[5] = HCSMCs, 50 μM A23187 for 2 hours

Question: How did the PCNA level [1] turn out when MDL28170 [reference compound] was run?
Answer: decreased

Question: What about the “degradation of SERCA2a (immunostaining)” value (SERCA2a [2]) of the same molecule?
Answer: inhibited

Question: And the “degradation of SERCA2a (western blotting)” value (SERCA2a [2])?
Answer: protective effect

Question: And the “A23187 (Ca^2+)-dependent degradation of SERCA2a” value (SERCA2a [3]; [4])?
Answer: completely blocked

Question: What about the “elevation of the cytosolic Ca^2+ level by A23187” value (cytosolic Ca^2+ level; [4]) of the same molecule?
Answer: not

Question: `CNc1ccc2oc(C[C@H]3O[C@@]4(CC[C@H]3C)O[C@H]([C@H](C)C(=O)c3ccc[nH]3)[C@H](C)C[C@H]4C)nc2c1C(=O)O` [A23187] was tested. Which “degradation of SERCA2a” value (SERCA2a [3]; [5]) did it give?
Answer: evoked the degradation

Question: What about the “cytosolic Ca^2+ level” value (cytosolic Ca^2+ level; [5]) of the same molecule?
Answer: elevation

Question: For `C=C1[C@@H](O)[C@@H]2O[C@]3(CC[C@H](/C=C/[C@@H](C)[C@@H]4CC(C)=C[C@@]5(O[C@H](C[C@@](C)(O)C(=O)O)CC[C@H]5O)O4)O3)CC[C@H]2O[C@@H]1[C@@H](O)C[C@H](C)[C@H]1O[C@@]2(CCCCO2)CC[C@H]1C` [okadaic acid, reference compound], which “phosphorylation of Akt and eNOS” value (eNOS and Akt) is on record?
Answer: increased

From patent US11426441B2, “Composition comprising protein phosphatase 1 inhibitory peptide for treating vascular diseases” (BethphaGen Inc., priority 2016, dated 2022)
